The subject of test [1] is SW480 cells. Kind of test: Determination of lactate generation. The settings on record: 48 h; versus untreated or Met treated control. In kind it is cell-based, human. The protocol: After 48 h drug treatment, media was collected and assayed following the manufacturer’s instructions of Lactic Acid Production Detection kit (KeyGen, Nanjing, China) to measure the generation of lactic acid. The assay was determined using a plate reader (Synergy HT, BioTek, USA) at 530 nm. Met was used as a positive control.

Test [2] relates to SW480 cells. The test can be described thus: Glucose uptake assay. In kind it is cell-based, human. The settings on record: 48 h; versus untreated or Met treated control. As for the experimental part: The Glucose Assay Kit (Rsbio, Shanghai, China) was used to analyse the glucose uptake. After 48 h drug treatment, media was collected and diluted within water. The amount of glucose in the media was then detected. Glucose uptake was determined by subtracting the amount of glucose in each sample from the total amount of glucose in the media (without cells). Met was used as a standard control in this assay.

A further test concerns the target T1, HK2 (Homo sapiens, UniProt P52789).
T1 construct: made in house; host or cells: E. coli BL21 (DE3)
T1 sequence (P52789 1-917): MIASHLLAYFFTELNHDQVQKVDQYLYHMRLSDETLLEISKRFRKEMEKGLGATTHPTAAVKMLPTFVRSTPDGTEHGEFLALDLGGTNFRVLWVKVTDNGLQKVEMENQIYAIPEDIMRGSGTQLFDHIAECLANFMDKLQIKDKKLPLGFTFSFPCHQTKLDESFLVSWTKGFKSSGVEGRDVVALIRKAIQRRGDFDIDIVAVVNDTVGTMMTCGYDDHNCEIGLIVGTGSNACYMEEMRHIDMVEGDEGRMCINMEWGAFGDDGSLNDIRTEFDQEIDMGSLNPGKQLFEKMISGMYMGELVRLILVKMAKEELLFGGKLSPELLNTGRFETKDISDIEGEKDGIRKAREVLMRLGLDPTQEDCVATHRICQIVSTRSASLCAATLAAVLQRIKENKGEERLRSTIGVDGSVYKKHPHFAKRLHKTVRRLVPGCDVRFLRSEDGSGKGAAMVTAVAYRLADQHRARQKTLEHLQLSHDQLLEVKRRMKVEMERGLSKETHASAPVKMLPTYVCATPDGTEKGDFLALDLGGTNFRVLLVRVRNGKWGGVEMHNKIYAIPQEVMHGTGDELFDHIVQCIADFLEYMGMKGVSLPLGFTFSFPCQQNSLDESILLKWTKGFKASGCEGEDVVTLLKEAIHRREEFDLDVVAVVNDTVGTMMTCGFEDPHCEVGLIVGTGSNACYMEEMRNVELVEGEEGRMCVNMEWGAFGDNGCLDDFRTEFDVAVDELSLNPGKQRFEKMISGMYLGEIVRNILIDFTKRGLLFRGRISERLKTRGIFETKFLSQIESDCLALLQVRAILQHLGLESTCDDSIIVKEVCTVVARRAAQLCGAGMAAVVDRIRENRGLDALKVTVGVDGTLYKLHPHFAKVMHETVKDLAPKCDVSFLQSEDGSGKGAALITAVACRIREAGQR
The test can be described thus: In vitro enzyme inhibition assay (G6P-DH coupled, NADH 340 nm). In kind it is biochemical. The conditions noted are these: recombinant HK2; n.i means no enzyme inhibition; read-out: Enzyme IC50. As for the experimental part:
(§1) Then 85 μL assay mix containing 100 mM Tris HCl pH 8.0, 5 mM MgCl2, 200 mM Glucose, 0.8 mM ATP, 1 mM NAD^+, 0.25 Units of G6P-DH, was added.

A further test concerns the target T2, HK4 (Homo sapiens, UniProt P35557).
T2 construct: made in house; host or cells: E. coli BL21 (DE3)
T2 sequence (P35557 1-465): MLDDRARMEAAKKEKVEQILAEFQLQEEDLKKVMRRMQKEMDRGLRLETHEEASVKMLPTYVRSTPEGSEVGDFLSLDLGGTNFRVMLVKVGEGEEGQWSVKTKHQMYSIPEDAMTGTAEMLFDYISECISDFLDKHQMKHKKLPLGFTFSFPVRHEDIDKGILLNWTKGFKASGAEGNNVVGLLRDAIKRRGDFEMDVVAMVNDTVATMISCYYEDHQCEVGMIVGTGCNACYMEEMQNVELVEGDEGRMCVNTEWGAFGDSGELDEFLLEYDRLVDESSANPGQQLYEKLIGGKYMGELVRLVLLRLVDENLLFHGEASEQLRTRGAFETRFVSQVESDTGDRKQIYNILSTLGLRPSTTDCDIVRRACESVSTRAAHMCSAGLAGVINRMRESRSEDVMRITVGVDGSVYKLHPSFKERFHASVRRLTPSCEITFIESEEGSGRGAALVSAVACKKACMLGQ
Described as above. The conditions noted are these: recombinant HK4. In kind it is biochemical. As for the experimental part: as §1

Another test deals with T3, HK1 (Homo sapiens, UniProt P19367).
T3 construct: purchased Shanghai yuanye Bio-Technology Co., Ltd (China)
T3 sequence (P19367 1-917): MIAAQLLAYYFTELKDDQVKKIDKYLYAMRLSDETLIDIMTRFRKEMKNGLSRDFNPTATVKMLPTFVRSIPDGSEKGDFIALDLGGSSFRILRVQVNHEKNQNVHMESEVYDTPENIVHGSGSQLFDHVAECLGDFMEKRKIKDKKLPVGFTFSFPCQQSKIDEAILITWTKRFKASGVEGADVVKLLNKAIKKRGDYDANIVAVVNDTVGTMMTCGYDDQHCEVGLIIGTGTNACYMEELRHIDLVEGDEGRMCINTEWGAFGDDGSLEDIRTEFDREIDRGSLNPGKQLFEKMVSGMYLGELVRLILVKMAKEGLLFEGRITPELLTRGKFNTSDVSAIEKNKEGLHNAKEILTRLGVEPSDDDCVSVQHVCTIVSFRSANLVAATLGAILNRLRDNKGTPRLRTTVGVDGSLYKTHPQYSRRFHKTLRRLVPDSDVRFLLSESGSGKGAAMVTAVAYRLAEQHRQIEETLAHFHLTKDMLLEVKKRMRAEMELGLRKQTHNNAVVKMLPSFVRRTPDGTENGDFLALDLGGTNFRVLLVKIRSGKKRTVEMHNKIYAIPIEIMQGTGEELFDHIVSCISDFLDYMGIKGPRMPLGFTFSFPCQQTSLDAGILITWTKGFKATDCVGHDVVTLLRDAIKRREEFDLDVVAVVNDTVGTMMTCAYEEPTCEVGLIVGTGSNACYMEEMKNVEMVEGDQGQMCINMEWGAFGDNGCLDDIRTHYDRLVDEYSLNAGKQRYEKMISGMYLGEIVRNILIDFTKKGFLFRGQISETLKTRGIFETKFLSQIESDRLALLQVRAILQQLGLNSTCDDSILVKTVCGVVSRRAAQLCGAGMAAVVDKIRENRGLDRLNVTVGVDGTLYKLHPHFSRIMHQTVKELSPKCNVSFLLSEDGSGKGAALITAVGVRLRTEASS
The test is described as above. In kind it is biochemical. The conditions noted are these: recombinant HK1. The protocol:
as §1

Test [3] relates to SW480 cells. The test can be described thus: Measurement of intracellular ATP level. The conditions noted are these: 75, 150 and 300 μM, 48 h. In kind it is cell-based, human. As for the experimental part:
After centrifugation, supernatants were assayed by ATP assay kit (KeyGen, Nanjing, China) to determine the generation of ATP. The assay was determined using the plate reader (Synergy HT, BioTek, USA) at 636 nm.

Usually IC50 stands for the concentration that inhibits the measured activity by half.

`NC(CO)C(=O)NNCc1ccc(O)c(O)c1O` (stereo not drawn) [Benz, Benserazide]: in the test on SW480 cells [1], the “concentration of lactate in cell culture supernatant” value is “remarkably decreased”. In the test on SW480 cells [2], the glucose uptake result is given as “significantly lower”. Also, the results for the IC50 on HK2, at HK4 and at HK1 were 5.52 ± 0.17 µM, 40.5 ± 2.94 µM and 25.13 ± 0.24 µM, respectively. In the test with SW480 cells [3], the “intracellular ATP level” value is listed as “reduced”.

These data come from publication PMC5399312 (Journal of Experimental & Clinical Cancer Research : CR, 2017).
